Measured values taken from patent publication US20260198495A1, “BINARY INSECTICIDE COMPOSITION AND USE THEREOF” (SHENYANG SINOCHEM AGROCHEMICALS R & D CO., LTD., priority 2022, published 2026).
In brackets after ≈: the same amount, converted by molar mass.

How the values were obtained:
Format in all cases: in vivo
[1] = test system: Frankliniella occidentalis nymphs; experiment: whole plant or invertebrate; details: foliar, A = compound I-72, B = dinotefuran, kidney bean leaf dipping, 48 hours, read-out: LC50
Description: Test target: Frankliniella occidentalis nymphs.
(§1) Preparation of the pesticide solution: according to different test requirements, the test samples were accurately weighed respectively with an electronic analytical balance. The technical pesticides were dissolved in acetone, and then diluted with 0.1% Tween 80 water into a series of pesticide solutions with a certain concentration gradient according to the experimental design dosage.
(§2) Experimental method: first, kidney bean leaves were selected and dipped in the prepared pesticide solution for 10 s in the order from low dosage to high dosage according to the experimental design. After natural air-drying in the shade, they were placed in a 9-cm-diameter Petri dish with filter paper, and uniform and healthy test insects were introduced, with 20-30 insects for each treatment and 3 replicates for each treatment. In addition, a blank control was set up.
(§3) The treated test materials were placed in an observation room, and the temperature, humidity and illumination of the observation room could be adjusted as needed. The number of dead and live insects was investigated 48 hours later. […] Then, the co-toxicity coefficient of each ratio was calculated using the Sun Y-P method to evaluate the mixing effect (the same as in Example 1).

Aphis craccivora nymphs = experiment: whole plant or invertebrate; details: A = compound I-72, B = sulfoxaflor, broad bean seedling spraying, 48 hours, read-out: LC50
Description: Test target: Aphis craccivora nymphs, a sensitive strain reared indoors.
as §1
Experimental method: first, broad bean seedlings with uniform and consistent Aphis craccivora were selected, with about 30-40 insects on each seedling. Then, they were evenly sprayed with the pesticide solution in the order from low dosage to high dosage according to the experimental design, with 1.5 mL of the solution for each leaf and 3 replicates for each treatment. In addition, a blank control was set up.
(§4) The treated test materials were placed in an observation room, and the temperature, humidity and illumination of the observation room could be adjusted as needed. The number of dead and live insects was investigated 48 hours later.

[2] = test system: 3rd-instar larvae of Ostrinia furnacalis Guenee; experiment: Synergism screening (Bliss) of I-72 + ecdysteroid and juvenile hormone insecticides, Example 51, Table 51; details: Ostrinia furnacalis; single pesticide, 2 mg/L; 72 hours; read-out: Measured mortality rate
Description: Test target: 3rd-instar larvae of Ostrinia furnacalis Guenee.
as §1
as §2, with “tender corn stems” for “kidney bean leaves”, “10” for “20-30”, “control (CK)” for “control”
as §4, with “alive” for “live”, “72” for “48”, “later, and the corrected mortality rate was calculated using the Abbott's formula.” for “later.”
The synergism of the mixture was evaluated by adopting the Bliss method, as in Example 5.

[3] = test system: Bemisia tabaci (Gennadius) nymphs; experiment: Joint toxicity of I-72 + bifenthrin, Example 40, Table 40; details: A = compound I-72, B = bifenthrin, cotton leaf-disk spraying, 96 hours, read-out: LC50
Description: (§5) Test target: Bemisia tabaci (Gennadius) nymphs, a sensitive strain reared indoors.
as §1
(§6) Experimental method: first, cotton leaves with neat and consistent Bemisia tabaci (Gennadius) nymphs were selected and made into leaf disks, with about 20 insects on each leaf disk. Then, they were evenly sprayed with the pesticide solution in the order from low dosage to high dosage according to the experimental design, with 1.5 mL for each leaf and 3 replicates for each treatment. In addition, a blank control was set up.
as §3, with “96” for “48”

[4] = test system: Bemisia tabaci (Gennadius) nymphs; experiment: Joint toxicity of I-72 + thiacloprid, Example 71, Table 71; details: A = compound I-72, B = thiacloprid, cotton leaf-disk spraying, 96 hours, read-out: LC50
Description: as §5, §1, §6
as §3, with “96” for “48”

[5] = test system: adult Bemisia tabaci (Gennadius); experiment: Joint toxicity of I-72 + pyraclostrobin, cotton seedling spraying, Example 83, Table 83; details: A = compound I-72, B = pyraclostrobin, cotton seedling spraying, 72 hours, read-out: LC50
Description: as §1
The corrected mortality rate was calculated using the Abbott's formula, and statistical analysis was performed with the DPS data processing software to obtain the toxicity regression equation and LC50 value of each single test pesticide and each mixture of different ratios.

[6] = test system: Liriomyza sativae Blanchard larvae; experiment: Joint toxicity of I-72 + cyromazine, Example 55, Table 55; details: A = compound I-72, B = cyromazine, kidney bean seedling spraying, counted after blank control larvae pupated, read-out: LC50
Description: Test target: Liriomyza sativae Blanchard larvae.
as §1
Experimental method: first, kidney bean seedlings with the Liriomyza sativae Blanchard larvae (the larvae had just invaded and formed mines) were selected. Spraying treatments were performed in the order from low dosage to high dosage according to the experimental design, with 3 replicates for each treatment. In addition, a blank control was set up.
as §3, with “After the larvae in the blank control group pupated, the numbers” for “The number”, “were then counted.” for “was investigated 48 hours later.”

[7] = test system: 2nd-instar larvae of Plutella xylostella; experiment: Joint toxicity of I-72 + beta-cypermethrin, Example 43, Table 43; details: in Brassica oleracea, foliar, 72 h
Description: as §1
as §2, with “cabbage” for “kidney bean”, “10” for “20-30”
The treated test materials were placed in an observation room, and the temperature, humidity and illumination of the observation room could be adjusted as needed. The number of dead and live insects was investigated 72 hours later.

Molecule `CN(C(=O)c1ccc2c(c1)OC(F)(F)O2)c1cccc(C(=O)Nc2c(Br)cc(C(F)(C(F)(F)F)C(F)(F)F)cc2OC(F)F)c1F` [Compound I-72] has an LC50 [1] of 2.41 µg/mL (≈ 3.25 µM), an LC50 (Aphis craccivora nymphs) of 2.52 µg/mL (≈ 3.41 µM) and a mortality at 2 µg/mL [2] of 75.9%. It also gave an LC50 [3] of 10.9 µg/mL, an LC50 [4] of 10.9 µg/mL and an LC50 [5] of 4.02 µg/mL. For the same molecule, the LC50 [6] was 0.501 µg/mL and the LC50 [7] was 0.0897 µg/mL.
